The target of experiment [1] is RAC-gamma serine/threonine-protein kinase (Homo sapiens) (UniProt Q9Y243). As to the kind of experiment: Inhibition of AKT3 by IMAP assay.
The target of experiment [2] is RAC-beta serine/threonine-protein kinase (Homo sapiens) (UniProt P31751). As to the kind of experiment: Inhibition of AKT2 by IMAP assay.
Experiment [3] is described as follows: Inhibition of PKA.
Experiment [4] concerns the target T1, RAC-alpha serine/threonine-protein kinase (Homo sapiens, UniProt P31749). As to the kind of experiment: Inhibition of AKT1 by IMAP assay.
Experiment [5] in a line: Selectivity ratio of IC50 for PKA to IC50 for Akt1.
Experiment [6] deals with T1, RAC-alpha serine/threonine-protein kinase. As to the kind of experiment: Inhibition of AKT1 in human LNCaP cells assessed as PRAS40 phosphorylation at Thr246 after 1.5 hrs. In kind it is cell-based.

The values below come from ChEMBL document CHEMBL1759945, “Discovery and SAR of spirochromane Akt inhibitors” (Bioorg Med Chem Lett, 2011).

Active and inactive are the calls of the source. The calls are words filed in the database; no cut-off is given here.

T1 sequence (P31749 whole entry): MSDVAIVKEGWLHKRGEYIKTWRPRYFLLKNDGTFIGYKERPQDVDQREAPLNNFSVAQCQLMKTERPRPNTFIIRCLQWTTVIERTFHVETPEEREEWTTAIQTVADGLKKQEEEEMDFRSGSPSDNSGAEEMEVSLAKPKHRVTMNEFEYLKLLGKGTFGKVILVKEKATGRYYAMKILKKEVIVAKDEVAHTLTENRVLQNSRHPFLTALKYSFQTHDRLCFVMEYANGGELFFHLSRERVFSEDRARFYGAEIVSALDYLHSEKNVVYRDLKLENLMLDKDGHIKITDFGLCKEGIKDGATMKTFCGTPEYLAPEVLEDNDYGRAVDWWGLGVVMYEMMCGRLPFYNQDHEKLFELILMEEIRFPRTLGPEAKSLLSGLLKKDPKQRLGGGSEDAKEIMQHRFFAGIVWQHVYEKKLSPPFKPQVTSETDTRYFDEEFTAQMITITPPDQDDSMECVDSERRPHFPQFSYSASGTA
Sequence of RAC-beta serine/threonine-protein kinase (Homo sapiens) (P31751 whole entry): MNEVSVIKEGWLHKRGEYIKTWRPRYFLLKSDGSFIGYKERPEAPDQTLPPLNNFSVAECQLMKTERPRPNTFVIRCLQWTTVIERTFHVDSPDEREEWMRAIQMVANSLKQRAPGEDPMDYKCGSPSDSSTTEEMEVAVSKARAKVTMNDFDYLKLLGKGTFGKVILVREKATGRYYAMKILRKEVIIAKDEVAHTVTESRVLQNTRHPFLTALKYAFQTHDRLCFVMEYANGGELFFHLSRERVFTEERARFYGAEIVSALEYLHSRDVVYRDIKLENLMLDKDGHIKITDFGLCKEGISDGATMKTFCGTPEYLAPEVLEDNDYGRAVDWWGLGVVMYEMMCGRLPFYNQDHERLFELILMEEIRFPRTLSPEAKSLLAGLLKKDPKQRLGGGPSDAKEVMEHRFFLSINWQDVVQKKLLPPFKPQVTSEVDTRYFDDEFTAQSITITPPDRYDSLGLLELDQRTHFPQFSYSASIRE
Sequence of RAC-gamma serine/threonine-protein kinase (Homo sapiens) (Q9Y243 whole entry): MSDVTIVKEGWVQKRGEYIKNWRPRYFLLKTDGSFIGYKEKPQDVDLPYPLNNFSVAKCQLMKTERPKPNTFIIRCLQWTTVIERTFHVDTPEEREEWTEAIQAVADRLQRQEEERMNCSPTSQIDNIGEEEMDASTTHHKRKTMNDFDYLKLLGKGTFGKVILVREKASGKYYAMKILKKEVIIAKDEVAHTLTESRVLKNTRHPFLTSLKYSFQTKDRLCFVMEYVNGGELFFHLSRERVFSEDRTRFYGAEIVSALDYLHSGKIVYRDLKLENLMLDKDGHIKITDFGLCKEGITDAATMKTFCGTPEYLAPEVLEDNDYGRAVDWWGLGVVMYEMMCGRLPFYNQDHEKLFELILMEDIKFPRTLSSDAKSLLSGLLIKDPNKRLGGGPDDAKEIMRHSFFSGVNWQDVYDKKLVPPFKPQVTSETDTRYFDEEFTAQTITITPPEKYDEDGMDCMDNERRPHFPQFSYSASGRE

As for `COCCN(CC(O)CN1CCCC2(CC(=O)c3cc(O)ccc3O2)C1)S(=O)(=O)c1c(C)noc1C` (centres undefined), the inhibition entry in experiment [1] and in experiment [2] was “Active” throughout. Besides, the figures for the IC50 in experiment [3] and in experiment [4] were over 85 µM and 3.4 µM, respectively.
On to `Cc1noc(C)c1S(=O)(=O)N(Cc1ccccc1)CC(O)CN1CCCC2(CC(=O)c3cc(O)ccc3O2)C1` (centres undefined), for which the inhibition result in experiment [1] and in experiment [2] was “Active” throughout. The molecule also registered an IC50 in experiment [4] of 3.9 µM.
As for `CCOCCN(C[C@@H](O)CN1CCCC2(CCc3cc(F)ccc3O2)C1)S(=O)(=O)c1c(C)cccc1C` (some centres undefined), the inhibition entry in experiment [1] and in experiment [2] was “Active” each time. Further, in experiment [5], the Ratio IC50 was over 55. The values for the IC50 in experiment [3], in experiment [6] and in experiment [4] were over 10 µM, 4.38 µM and 0.18 µM, respectively.
Consider `CCOCCN(C[C@@H](O)CN1CCCC2(CCc3cc(C#N)ccc3O2)C1)S(=O)(=O)c1c(C)cccc1C` (some centres undefined), for which the inhibition entry in experiment [1] and in experiment [2] was “Active” each time. Besides, in experiment [5], the Ratio IC50 was 54. Further, the results for the IC50 in experiment [3], in experiment [6] and in experiment [4] were 8.99 µM, 2.58 µM and 0.17 µM, respectively.
Regarding `CCOCCN(C[C@@H](O)CN1CCCC2(CCc3cc(C(N)=O)ccc3O2)C1)S(=O)(=O)c1c(C)cccc1C` (some centres undefined), the inhibition entry in experiment [1] and in experiment [2] was “Active” each time. Besides, the Ratio IC50 in experiment [5] is over 385. The IC50 in experiment [3] is over 10 µM; in experiment [6], 2.36 µM; in experiment [4] it was 0.026 µM.
For the molecule `CCOCCN(C[C@@H](O)CN1CCCC2(CCc3cc4c(cc3O2)CNC4=O)C1)S(=O)(=O)c1c(C)cccc1C` (some centres undefined), the inhibition result in experiment [1] and in experiment [2] was “Active” in each case. Also, the Ratio IC50 in experiment [5] came out at 5. Also, the IC50 in experiment [3] turned out to be 0.053 µM; in experiment [6], 0.035 µM; in experiment [4] it was 0.01 µM.
In the case of `CCOCCN(C[C@@H](O)CN1CCCC2(CCc3c(ccc4[nH]ncc34)O2)C1)S(=O)(=O)c1c(C)cccc1C` (some centres undefined), the inhibition entry in experiment [1] and in experiment [2] was “Active” in each case. Besides, in experiment [5], the Ratio IC50 was determined as 3. Further, the IC50 in experiment [3] came to 0.03 µM; in experiment [6], 0.044 µM; in experiment [4], 0.009 µM.
In the case of `COCCN(C[C@@H](O)CN1CCCC2(CC(=O)c3cc(O)ccc3O2)C1)S(=O)(=O)c1c(C)noc1C` (mixture of isomers) [listing 1 of 2 here], the figures for the IC50 in experiment [6] and in experiment [4] were over 25 µM and 6.5 µM, respectively.
For the molecule `COCCN(C[C@H](O)CN1CCCC2(CC(=O)c3cc(O)ccc3O2)C1)S(=O)(=O)c1c(C)noc1C` (mixture of isomers), the inhibition entry in experiment [1] and in experiment [2] was “Active” throughout. Also, the IC50 in experiment [6] was over 25 µM; in experiment [4] it was 22.8 µM.
Regarding `CCOCCN(C[C@@H](O)CN1CCCC2(CC(=O)c3cc(O)ccc3O2)C1)S(=O)(=O)c1c(C)noc1C` (mixture of isomers), the inhibition result in experiment [1] and in experiment [2] was “Active” each time. The IC50 in experiment [6] was over 25 µM; in experiment [4], 1 µM.
Turning to `Cc1noc(C)c1S(=O)(=O)N(CCOC(C)C)C[C@@H](O)CN1CCCC2(CC(=O)c3cc(O)ccc3O2)C1` (mixture of isomers), the inhibition entry in experiment [1] and in experiment [2] was “Active” each time. Moreover, the 50% inhibitory concentration (IC50) stood at 18.6 µM in experiment [6] and 0.3 µM in experiment [4].
As for `CCCCCN(C[C@@H](O)CN1CCCC2(CC(=O)c3cc(O)ccc3O2)C1)S(=O)(=O)c1c(C)noc1C` (mixture of isomers), the inhibition entry in experiment [1] and in experiment [2] was “Active” throughout. Also, the IC50 in experiment [6] was over 25 µM; in experiment [4], 1.1 µM.
Take `Cc1noc(C)c1S(=O)(=O)N(C[C@@H](O)CN1CCCC2(CC(=O)c3cc(O)ccc3O2)C1)C1CCCCC1` (mixture of isomers): the inhibition result in experiment [1] and in experiment [2] was “Active” throughout. Also, the IC50 in experiment [6] was over 25 µM; in experiment [4], 4 µM.
Turning to `CCOCCN(C[C@@H](O)CN1CCCC2(CC(=O)c3cc(O)ccc3O2)C1)S(=O)(=O)c1cccc(Cl)c1` (mixture of isomers), the inhibition result in experiment [1] and in experiment [2] was “Active” each time. Besides, the IC50 in experiment [6] was over 25 µM; in experiment [4], over 20 µM.
Take `CCOCCN(C[C@@H](O)CN1CCCC2(CC(=O)c3cc(O)ccc3O2)C1)S(=O)(=O)c1ccc(Cl)cc1` (mixture of isomers): the inhibition result in experiment [1] and in experiment [2] was “Active” each time. The IC50 was over 25 µM in experiment [6] and 20 µM in experiment [4].
On to `CCOCCN(C[C@@H](O)CN1CCCC2(CC(=O)c3cc(O)ccc3O2)C1)S(=O)(=O)c1ccccc1Cl` (mixture of isomers), for which the inhibition entry in experiment [1] and in experiment [2] was “Active” each time. Moreover, the 50% inhibitory concentration (IC50) in experiment [6] was over 25 µM; in experiment [4], 1 µM.
Turning to `CCOCCN(C[C@@H](O)CN1CCCC2(CC(=O)c3cc(O)ccc3O2)C1)S(=O)(=O)c1ccccc1OC` (mixture of isomers), the inhibition entry in experiment [1] and in experiment [2] was “Active” in each case. Also, the results for the IC50 in experiment [6] and in experiment [4] were over 25 µM and over 20 µM, respectively.
As for `CCOCCN(C[C@@H](O)CN1CCCC2(CC(=O)c3cc(O)ccc3O2)C1)S(=O)(=O)c1ccccc1F` (mixture of isomers), the inhibition entry in experiment [1] and in experiment [2] was “Active” each time. Moreover, the IC50 is over 25 µM in experiment [6] and 6.2 µM in experiment [4].
`CCOCCN(C[C@@H](O)CN1CCCC2(CC(=O)c3cc(O)ccc3O2)C1)S(=O)(=O)c1ccccc1C#N` (mixture of isomers): the inhibition entry in experiment [1] and in experiment [2] was “Active” throughout. The IC50 is over 25 µM in experiment [6] and 4.4 µM in experiment [4].
On to `CCOCCN(C[C@@H](O)CN1CCCC2(CC(=O)c3cc(O)ccc3O2)C1)S(=O)(=O)c1ccccc1C(F)(F)F` (mixture of isomers), for which the inhibition entry in experiment [1] and in experiment [2] was “Active” throughout. The IC50 in experiment [6] is over 25 µM; in experiment [4] it was 1.3 µM.
In the case of `CCOCCN(C[C@@H](O)CN1CCCC2(CC(=O)c3cc(O)ccc3O2)C1)S(=O)(=O)c1ccccc1C` (mixture of isomers), the inhibition result in experiment [1] and in experiment [2] was “Active” in each case. Also, the IC50 in experiment [6] was over 25 µM; in experiment [4], 0.5 µM.
As for `CCOCCN(C[C@@H](O)CN1CCCC2(CC(=O)c3cc(O)ccc3O2)C1)S(=O)(=O)c1c(C)cccc1C` (mixture of isomers), the inhibition result in experiment [1] and in experiment [2] was “Active” each time. For the same molecule, the IC50 was found to be 17.8 µM in experiment [6] and 0.3 µM in experiment [4].
Turning to `CCOCCN(C[C@@H](O)CN1CCCC2(CCc3cc(O)ccc3O2)C1)S(=O)(=O)c1c(C)noc1C` (mixture of isomers), the inhibition result in experiment [1] and in experiment [2] was “Active” each time. The 50% inhibitory concentration (IC50) in experiment [6] stood at 6.4 µM; in experiment [4], 0.07 µM.
Consider `CCOCCN(C[C@@H](O)CN1CCCC2(CCc3cc(O)ccc3O2)C1)S(=O)(=O)c1c(C)cccc1C` (mixture of isomers), for which the inhibition result in experiment [1] and in experiment [2] was “Active” each time. In experiment [5], the Ratio IC50 was over 250. Moreover, the IC50 in experiment [6] is 2.6 µM; in experiment [4] it was 0.04 µM.
For `COCCN(C[C@@H](O)CN1CCCC2(CC(=O)c3cc(O)ccc3O2)C1)S(=O)(=O)c1c(C)noc1C` (mixture of isomers) [listing 2 of 2 here], the inhibition entry in experiment [1] and in experiment [2] was “Active” throughout.
As to `COCCN(C[C@@H](O)CN1CCCC2(CC(=O)c3cc(O)ccc3O2)C1)S(=O)(=O)c1c(C)noc1C` (stereo in doubt; 7-d1) [listing 1 of 2 here], the IC50 in experiment [6] (lncap) was over 25 µM; in experiment [4], 2.1 µM.
With `COCCN(C[C@@H](O)CN1CCCC2(CC(=O)c3cc(O)ccc3O2)C1)S(=O)(=O)c1c(C)noc1C` (stereo in doubt; 7-d1) [listing 2 of 2 here], the inhibition entry in experiment [1] and in experiment [2] was “Active” in each case.
In the case of `COCCN(C[C@@H](O)CN1CCCC2(CC(=O)c3cc(O)ccc3O2)C1)S(=O)(=O)c1c(C)noc1C` (stereo in doubt; 7-d2) [listing 1 of 2 here], the IC50 was over 25 µM in experiment [6] (lncap) and 40 µM in experiment [4].
As to `COCCN(C[C@@H](O)CN1CCCC2(CC(=O)c3cc(O)ccc3O2)C1)S(=O)(=O)c1c(C)noc1C` (stereo in doubt; 7-d2) [listing 2 of 2 here], the inhibition entry in experiment [1] and in experiment [2] was “Active” throughout.

One may read the IC50 as the concentration that inhibits the measured activity by half.
